{"source": "ChEMBL document CHEMBL1139752", "about": "“New rifabutin analogs: synthesis and biological activity against Mycobacterium tuberculosis” (2006)", "type_in_all_cases": "functional", "key": {"[1]": {"tested_on": "Mycobacterium tuberculosis", "test": "Antimycobacterial activity against rifampicin and rifabutin sensitive Mycobacterium tuberculosis"}, "Mycobacterium kansasii": {"tested_on": "Mycobacterium kansasii", "test": "Antimycobacterial activity against Mycobacterium kansasii measured as susceptibility at 1 ug/mL"}, "Mycobacterium avium": {"tested_on": "Mycobacterium avium", "test": "Antimycobacterial activity against Mycobacterium avium-intracellulare complex measured as susceptibility at 1 ug/mL"}, "[2]": {"tested_on": "Mycobacterium tuberculosis", "test": "Antimycobacterial activity against Mycobacterium tuberculosis H37 Rv ATCC 27294"}}, "data": [{"compound": "CCCCN1[C@@H](c2ccccc2)C[C@@]2(C[C@H]1c1ccccc1)N=C1C(=C3NC(=O)/C(C)=C\\C=C\\[C@H](C)[C@H](O)[C@@H](C)[C@H](O)[C@H](C)[C@H](OC(C)=O)[C@H](C)[C@@H](OC)/C=C/O[C@@]4(C)Oc5c(C)c(O)c(c1c5C4=O)C3=O)N2", "values": [{"measurement": "MIC", "setting": "[1]", "value": 0.02, "unit": "µg/mL"}, {"measurement": "Activity", "setting": "Mycobacterium kansasii", "value": 100, "unit": "%"}, {"measurement": "Activity", "setting": "Mycobacterium avium", "value": 40, "unit": "%"}, {"measurement": "MIC", "setting": "[2]", "value": 0.02, "unit": "µg/mL"}]}, {"compound": "COc1ccc([C@@H]2C[C@]3(C[C@H](c4ccc(OC)cc4)N2)N=C2C(=C4NC(=O)/C(C)=C\\C=C\\[C@H](C)[C@H](O)[C@@H](C)[C@H](O)[C@H](C)[C@H](OC(C)=O)[C@H](C)[C@@H](OC)/C=C/O[C@@]5(C)Oc6c(C)c(O)c(c2c6C5=O)C4=O)N3)cc1", "values": [{"measurement": "MIC", "setting": "[1]", "value": 0.02, "unit": "µg/mL"}, {"measurement": "Activity", "setting": "Mycobacterium kansasii", "value": 100, "unit": "%"}, {"measurement": "Activity", "setting": "Mycobacterium avium", "value": 60, "unit": "%"}, {"measurement": "MIC", "setting": "[2]", "value": 0.02, "unit": "µg/mL"}]}, {"compound": "CO[C@H]1/C=C/O[C@@]2(C)Oc3c(C)c(O)c4c(c3C2=O)C2=N[C@@]3(C[C@@H](c5ccccc5)N[C@@H](c5ccccc5)C3)NC2=C(NC(=O)/C(C)=C\\C=C\\[C@H](C)[C@H](O)[C@@H](C)[C@H](O)[C@H](C)[C@H](OC(C)=O)[C@@H]1C)C4=O", "values": [{"measurement": "MIC", "setting": "[1]", "value": 0.02, "unit": "µg/mL"}, {"measurement": "Activity", "setting": "Mycobacterium kansasii", "value": 100, "unit": "%"}, {"measurement": "Activity", "setting": "Mycobacterium avium", "value": 100, "unit": "%"}, {"measurement": "MIC", "setting": "[2]", "value": 0.02, "unit": "µg/mL"}]}, {"compound": "C=CCN1[C@@H](c2ccccc2)C[C@@]2(C[C@H]1c1ccccc1)N=C1C(=C3NC(=O)/C(C)=C\\C=C\\[C@H](C)[C@H](O)[C@@H](C)[C@H](O)[C@H](C)[C@H](OC(C)=O)[C@H](C)[C@@H](OC)/C=C/O[C@@]4(C)Oc5c(C)c(O)c(c1c5C4=O)C3=O)N2", "values": [{"measurement": "MIC", "setting": "[1]", "value": 0.02, "unit": "µg/mL"}, {"measurement": "Activity", "setting": "Mycobacterium kansasii", "value": 100, "unit": "%"}, {"measurement": "Activity", "setting": "Mycobacterium avium", "value": "<=40%"}, {"measurement": "MIC", "setting": "[2]", "value": 0.02, "unit": "µg/mL"}]}, {"compound": "CO[C@H]1/C=C/O[C@@]2(C)Oc3c(C)c(O)c4c(c3C2=O)C2=N[C@]3(C[C@@H](c5ccccc5)N[C@@H](c5ccccc5)C3)NC2=C(NC(=O)/C(C)=C\\C=C\\[C@H](C)[C@H](O)[C@@H](C)[C@H](O)[C@H](C)[C@H](OC(C)=O)[C@@H]1C)C4=O", "values": [{"measurement": "MIC", "setting": "[1]", "value": 0.02, "unit": "µg/mL"}, {"measurement": "Activity", "setting": "Mycobacterium kansasii", "value": 100, "unit": "%"}, {"measurement": "Activity", "setting": "Mycobacterium avium", "value": 100, "unit": "%"}, {"measurement": "MIC", "setting": "[2]", "value": 0.02, "unit": "µg/mL"}]}, {"compound": "CO[C@H]1/C=C/O[C@@]2(C)Oc3c(C)c(O)c4c(c3C2=O)C2=N[C@@]3(C[C@@H](c5ccc(F)cc5)N[C@@H](c5ccc(F)cc5)C3)NC2=C(NC(=O)/C(C)=C\\C=C\\[C@H](C)[C@H](O)[C@@H](C)[C@H](O)[C@H](C)[C@H](OC(C)=O)[C@@H]1C)C4=O", "values": [{"measurement": "MIC", "setting": "[1]", "value": 0.02, "unit": "µg/mL"}, {"measurement": "Activity", "setting": "Mycobacterium kansasii", "value": 100, "unit": "%"}, {"measurement": "Activity", "setting": "Mycobacterium avium", "value": 100, "unit": "%"}, {"measurement": "MIC", "setting": "[2]", "value": 0.02, "unit": "µg/mL"}]}, {"compound": "C=CCCN1[C@@H](c2ccccc2)C[C@@]2(C[C@H]1c1ccccc1)N=C1C(=C3NC(=O)/C(C)=C\\C=C\\[C@H](C)[C@H](O)[C@@H](C)[C@H](O)[C@H](C)[C@H](OC(C)=O)[C@H](C)[C@@H](OC)/C=C/O[C@@]4(C)Oc5c(C)c(O)c(c1c5C4=O)C3=O)N2", "values": [{"measurement": "MIC", "setting": "[1]", "value": 0.02, "unit": "µg/mL"}, {"measurement": "Activity", "setting": "Mycobacterium kansasii", "value": 100, "unit": "%"}, {"measurement": "Activity", "setting": "Mycobacterium avium", "value": 80, "unit": "%"}, {"measurement": "MIC", "setting": "[2]", "value": 0.02, "unit": "µg/mL"}]}, {"compound": "CO[C@H]1/C=C/O[C@@]2(C)Oc3c(C)c(O)c4c(c3C2=O)C2=NC3(CCN(CC(C)C)CC3)NC2=C(NC(=O)/C(C)=C\\C=C\\[C@H](C)[C@H](O)[C@@H](C)[C@@H](O)[C@@H](C)[C@H](OC(C)=O)[C@@H]1C)C4=O", "note": "[RIFABUTIN]", "values": [{"measurement": "MIC", "setting": "[1]", "value": 0.02, "unit": "µg/mL"}, {"measurement": "Activity", "setting": "Mycobacterium kansasii", "value": 100, "unit": "%"}, {"measurement": "Activity", "setting": "Mycobacterium avium", "value": 20, "unit": "%"}, {"measurement": "MIC", "setting": "[2]", "value": 0.02, "unit": "µg/mL"}]}, {"compound": "CO[C@H]1/C=C/O[C@@]2(C)Oc3c(C)c(O)c4c(O)c(c(/C=N/N5CCN(C)CC5)c(O)c4c3C2=O)NC(=O)/C(C)=C\\C=C\\[C@H](C)[C@H](O)[C@@H](C)[C@@H](O)[C@@H](C)[C@H](OC(C)=O)[C@@H]1C", "note": "[RIFAMPIN]", "values": [{"measurement": "MIC", "setting": "[1]", "value": 0.02, "unit": "µg/mL"}, {"measurement": "Activity", "setting": "Mycobacterium kansasii", "value": 100, "unit": "%"}, {"measurement": "Activity", "setting": "Mycobacterium avium", "value": 0, "unit": "%"}, {"measurement": "MIC", "setting": "[2]", "value": 0.02, "unit": "µg/mL"}]}]}
